# Measured values taken from patent US20190030182A1, “WATER-SOLUBLE POLYMER-LINKED BINDING MOIETY AND DRUG COMPOUNDS” (Nektar Therapeutics, priority 2011, published 2019).
# Assays:
# [1] = tested on: NCI-N87 cells (Her2 positive); test: In vitro cytotoxic activity (CytoTox-Glo), NCI-N87; type: cell-based; details: Homo sapiens, N87, 48 hours, medium pH 6.5
# Experimental: (§1) The conjugates were also tested in a Her2 negative cell line, […] as an experimental control. Serial dilutions of the conjugates and control compound were prepared. Cells were lifted from the flask using 2 mL of trypsin for 5 min, neutralized with 8 mL of complete growth medium, and centrifuged at 1200 rpm for 5 min. The supernatant was aspirated and the cell pellet was washed with PBS, centrifuged, then resuspended in complete growth medium (McCoy's for SKOV3 and RPMI-1640 for N87 and SK-N-SH, supplemented with 10% heat inactivated FBS), pH 6.5. Cells were counted, diluted, and then plated in white, clear bottom 96-well plates at a density of 20,000 cells/well, then followed immediately by addition of conjugates and control compound. Cells were incubated with the test articles for 48 hours in a 37° C., 5% CO^2 incubator, and then analyzed for cytotoxic activity using Promega CytoTox-Glo chemiluminescent reagent (Cat#G9291). Signal was quantified with a Perkin Elmer TopCount plate reader, and the data was analyzed using the GraphPad Prism software. FIGS. 4, 5, and 6 are linear regression graphs for each cell line where mean RLU is plotted vs. concentration.
# [2] = tested on: SKOV-3 cells (Her2 positive); test: In vitro cytotoxic activity (CytoTox-Glo), SKOV-3; type: cell-based; details: Homo sapiens, SK-OV-3; SKOV3, 48 hours, medium pH 6.5
# Experimental: as §1
# [3] = tested on: SK-N-SH cells (Her2 negative); test: In vitro cytotoxic activity (CytoTox-Glo), SK-N-SH; type: cell-based; details: Homo sapiens, 48 hours, medium pH 6.5
# Experimental: as §1
# [4] = tested on: N87 gastric carcinoma xenografts; test: Antitumor activity in N87 (HER2 overexpressing gastric carcinoma) xenografts; type: in vivo, female SCID mice; details: single i.v.; for Animals with tumors in inhibition (number/group) / Animals with tumors in regression (number/group) / Mean Tumor Growth Inhibition / Regression: Day 35; for Highest Tumor Volume Recorded / Lowest Tumor Volume Recorded / Tumor Volume on Study Termination (Day 35) / Tumor Volume on Treatment Initiation (Day 0): Mean±SEM; for Tumor Volume on Treatment Initiation (Day 0): baseline
# Description: The objective of this study was to evaluate the antitumor activity of a single administration of anti-HER2 targeted PEG-conjugated docetaxel on N87 gastric carcinoma xenografts in female SCID mice.
# Animal Husbandry: Female C.B.-17 SCID mice (5-6 weeks old), purchased from Charles River Laboratories were used for this study. Upon arrival, the mice were housed in ventilated polycarbonate cages with sterile bedding at five animals per cage and acclimated for a minimum of three days. The cages were identified by cage labels or tags. Sterilized (autoclaved or irradiated) water and commercial rodent diet were supplied ad libitum. Cages, bedding and water bottles were changed at least once a week and food was replenished as needed. The animals were maintained at a temperature
# Tumor Cell Preparation: All handling and preparation of cells were conducted in a biosafety cabinet for sterility and safety. N87, gastric carcinoma cells from the NEKTAR liquid nitrogen freezers were used for this study. The cells were grown in sterile tissue culture flasks with RPMI 1640 media containing 10% Fetal Bovine Serum (FBS) until 85% confluence. To prepare for implantation, the cells in the flasks were rinsed briefly with an appropriate amount of 0.25% trypsin solution. The rinsate was removed and replaced with 2 to 3 mL of fresh 0.25% trypsin solution. The flasks were then placed in a 37′C incubator for 5 minutes. When the cells dissociated, an appropriate amount of complete growth media was added to neutralize the trypsin. The suspension was centrifuged at 1000 rpm for 10 minutes after which the supernatant was discarded. The cells were washed by resuspending the pellet in an appropriate volume of serum free media. A sample was removed for counting and the rest of the suspension was again centrifuged at 1000 rpm for 10 minutes. After centrifugation, the supernatant was discarded and the cell pellet resuspended in serum free media at an appropriate volume determined by the cell count.
# Tumor Cell Implantation: All handling of animals and procedures were done in a biosafety cabinet. The animals' flanks were shaved prior to the day of implantation. The mice were anesthetized via isoflurane inhalation, when in proper anesthetic plane; the flanks were wiped with 70% isopropanol followed by implantation of the NCI N87 cells at 1×10^7 cells/site in 0.2 mL volume (in 50% Matrigel®) injected subcutaneous on the right flank of the animals. The animals were distributed accordingly based on the randomization generated by the StudyLog® software.
# Treatment Groups: There were 5 groups with 8 to 10 animals each. Included were vehicle (Saline), Docetaxel at 10 mg/kg and 20 mg/kg, Affibody A-linear 2 kD PEG-docetaxel 10 mg/kg (Example 6) (Docetaxel concentration) and Affibody A-linear 20 kD PEG-docetaxel at 10 mg/kg (Example 6) (Docetaxel concentration) respectively.
# Treatment Administration: The animals were distributed based on the randomization generated by the StudyLog® software. The mean tumor volumes on treatment day (Day 0) ranged from 209±8 mm^3 to 239±15 mm^3 (Mean±SEM). All test articles were diluted in sterile saline to the appropriate concentration and were administered as single dose to the appropriate treatment group via intravenous injection (i.v.). Animals were warmed in clear acrylic hotboxes to facilitate venous dilation. While in the hotboxes, the animals were closely observed for signs of overheating and distress. When the animals were amply warmed, they were removed from the hotboxes and transferred into appropriate mouse restrainers. The tails were wiped with alcohol pads and the test article in a syringe with a 27 gauge needle was injected into the lateral tail vein. Maximum treatment volume for the i.v. injections will not exceed 20 mL/kg.
# Tumor Measurements and Body Weights: Tumors size was monitored at least twice weekly. Dimensions (length and the width) were measured using digital calipers. Tumor volume was computed using the formula: […]
# [5] = Body weight in the N87 xenograft study; type: in vivo, female SCID mice
# Experimental: Where: L=length of the tumor in millimeters and W=width of the tumor in millimeters Tumor growth on each animal was monitored to a maximum volume of […]. Animals were weighed prior to implantation and at least twice weekly for the duration of the study.
# Mean body weights ranged from 19.6±0.4 g to 20.7±0.5 g (Mean±SEM) on treatment day (FIG. 10). Greatest mean body weight loss observed was 4% in group 3 (docetaxel, 20 mg·kg) on day 4 followed by group 2 (Docetaxel, 10 mg/kg) at 2% observed on days 4 and 7 (FIG. 11). No abnormal clinical observations were noted throughout the study.
compound,measurement,setting,value
"CC(=O)O[C@@]12CO[C@@H]1C[C@H](O)[C@@]1(C)C(=O)[C@H](O)C3=C(C)[C@@H](OC(=O)[C@H](O)[C@@H](NC(=O)OC(C)(C)C)c4ccccc4)C[C@@](O)([C@@H](OC(=O)c4ccccc4)[C@H]21)C3(C)C [Docetaxel, reference compound]",EC50,[1],0.00544 nM
same,EC50,[2],1.9 nM
same,EC50,[3],1.97 nM
same,Animals with tumors in inhibition (number/group),[4]; Docetaxel Dose 10 mg/kg,(9/10)
same,Animals with tumors in regression (number/group),[4]; Docetaxel Dose 10 mg/kg,(1/10)
same,Mean Tumor Growth Inhibition,[4]; Docetaxel Dose 10 mg/kg,67.5%
same,Regression,[4]; Docetaxel Dose 10 mg/kg,26%
same,Highest Tumor Volume Recorded,[4]; Docetaxel Dose 10 mg/kg,452 ± 80 mm^3
same,Lowest Tumor Volume Recorded,[4]; Docetaxel Dose 10 mg/kg,182 ± 25 mm^3
same,Tumor Volume on Study Termination (Day 35),[4]; Docetaxel Dose 10 mg/kg,452 ± 80 mm^3
same,Tumor Volume on Treatment Initiation (Day 0),[4]; Docetaxel Dose 10 mg/kg,224 ± 19 mm^3
same,Animals with tumors in inhibition (number/group),[4]; Docetaxel Dose 20 mg/kg,(9/10)
same,Animals with tumors in regression (number/group),[4]; Docetaxel Dose 20 mg/kg,(1/10)
same,Mean Tumor Growth Inhibition,[4]; Docetaxel Dose 20 mg/kg,85%
same,Regression,[4]; Docetaxel Dose 20 mg/kg,10%
same,Highest Tumor Volume Recorded,[4]; Docetaxel Dose 20 mg/kg,330 ± 33 mm^3
same,Lowest Tumor Volume Recorded,[4]; Docetaxel Dose 20 mg/kg,145 ± 8 mm^3
same,Tumor Volume on Study Termination (Day 35),[4]; Docetaxel Dose 20 mg/kg,330 ± 33 mm^3
same,Tumor Volume on Treatment Initiation (Day 0),[4]; Docetaxel Dose 20 mg/kg,225 ± 12 mm^3
same,Mean body weight loss,"[5]; 10 mg/kg, days 4 and 7",2%
same,Greatest mean body weight loss,"[5]; 20 mg·kg, day 4",4%
